# Results reported in patent US20230085307A1, “PYRIDAZINONE COMPOUND AND HERBICIDE” (NISSAN CHEMICAL CORPORATION, priority 2019, published 2023).
# How the values were obtained:
# [1] = system: oval-leafed pondweed; test: Test Example 1: herbicidal activity, application before weed generation under submerged conditions (Table 16, symbol C); assay type: in vivo, oval-leafed pondweed (Monochoria vaginalis); conditions: 320 g/ha applied herbicide
# Summary of the method: (§1)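 Submerged Wagner pots (alluvial soil, 4 cm water) sown with weed seeds and planted with 2.5-leaf rice seedlings; emulsifiable concentrate diluted in water applied to water surface on sowing day. Held in greenhouse at 25-30 °C; injury scored 0-5 by herbicidal rate after three weeks.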
# [2] = system: persian speedwell; test: Test Example 4: herbicidal effect by soil treatment (Table 19, symbol R); assay type: in vivo, Persian speedwell (Veronica persica); conditions: AAH 320 g/ha
# Summary of the method: (§2)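 Soil-surface application: an emulsion agent diluted with water to the predetermined dose is sprayed uniformly over seeds lying under roughly 1.5 cm of sterilized diluvial soil. Boxes stay in a greenhouse at 25° C. to 30° C. Three weeks later, each species is graded on previously defined criteria.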
# [3] = system: late watergrass; test: Test Example 1: herbicidal activity, application before weed generation under submerged conditions (Table 16, symbol A); assay type: in vivo, late watergrass (Echinochloa oryzicola); conditions: 320 g/ha applied herbicide
# Summary of the method: as §1
# [4] = system: Japanese bulrush; test: Test Example 1: herbicidal activity, application before weed generation under submerged conditions (Table 16, symbol B); assay type: in vivo, Japanese bulrush (Schoenoplectus juncoides); conditions: 320 g/ha applied herbicide
# Summary of the method: as §1
# [5] = system: barnyard grass; test: Test Example 3: herbicidal effect by foliage application, Wagner pot (Table 18, symbol H); assay type: in vivo, barnyard grass (Echinochloa crus-galli); conditions: 320 g/ha
# Summary of the method: (§3)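 Plants were sown in alluvial soil held under 0.1–0.5 cm standing water and grown 14 days in a greenhouse at 25–30 °C. An emulsifiable formulation, water-diluted to the set dose, was then sprayed onto the foliage, and effects were scored three weeks later using previously defined criteria.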
# [6] = system: redroot pigweed; test: Test Example 5: herbicidal effect by foliage application, plastic box (Table 20, symbol N); assay type: in vivo, redroot pigweed (Amaranthus retroflexus); conditions: foliage application, AAH 320 g/ha, three weeks after application
# Summary of the method: (§4)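 Sow seeds spot-wise in sterilized diluvial soil; cover with ~1.5 cm soil. Grow 14 days in greenhouse, 25° C. to 30° C. Spray foliage with emulsion diluted to predetermined amount. Rate effect after 3 weeks.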
# [7] = system: chickweed; test: Test Example 4: herbicidal effect by soil treatment (Table 19, symbol P); assay type: in vivo, common chickweed (Stellaria media); conditions: AAH 320 g/ha
# Summary of the method: as §2
# [8] = system: wild oat; test: Test Example 4: herbicidal effect by soil treatment (Table 19, symbol I); assay type: in vivo, wild oat (Avena fatua); conditions: AAH 320 g/ha
# Summary of the method: as §2
# [9] = system: lambsquarters; test: Test Example 4: herbicidal effect by soil treatment (Table 19, symbol O); assay type: in vivo, lambsquarters (Chenopodium album); conditions: AAH 320 g/ha
# Summary of the method: as §2
# [10] = system: barnyard grass; test: Test Example 5: herbicidal effect by foliage application, plastic box (Table 20, symbol H); assay type: in vivo, barnyard grass (Echinochloa crus-galli); conditions: foliage application, AAH 320 g/ha, three weeks after application
# Summary of the method: as §4
# [11] = system: blackgrass; test: Test Example 4: herbicidal effect by soil treatment (Table 19, symbol J); assay type: in vivo, blackgrass (Alopecurus myosuroides); conditions: AAH 320 g/ha
# Summary of the method: as §2
# [12] = system: Italian ryegrass; test: Test Example 5: herbicidal effect by foliage application, plastic box (Table 20, symbol K); assay type: in vivo, Italian ryegrass (Lolium multiflorum); conditions: foliage application, AAH 320 g/ha, three weeks after application
# Summary of the method: as §4
# [13] = system: windgrass; test: Test Example 5: herbicidal effect by foliage application, plastic box (Table 20, symbol L); assay type: in vivo, windgrass (Apera spica-venti); conditions: foliage application, AAH 320 g/ha, three weeks after application
# Summary of the method: as §4
# [14] = system: velvetleaf; test: Test Example 4: herbicidal effect by soil treatment (Table 19, symbol M); assay type: in vivo, velvetleaf (Abutilon theophrasti); conditions: AAH 320 g/ha
# Summary of the method: as §2
# [15] = system: southern crabgrass; test: Test Example 5: herbicidal effect by foliage application, plastic box (Table 20, symbol F); assay type: in vivo, southern crabgrass (Digitaria ciliaris); conditions: foliage application, AAH 320 g/ha, three weeks after application
# Summary of the method: as §4
# [16] = system: windgrass; test: Test Example 4: herbicidal effect by soil treatment (Table 19, symbol L); assay type: in vivo, windgrass (Apera spica-venti); conditions: AAH 320 g/ha
# Summary of the method: as §2
# [17] = system: persian speedwell; test: Test Example 5: herbicidal effect by foliage application, plastic box (Table 20, symbol R); assay type: in vivo, Persian speedwell (Veronica persica); conditions: foliage application, AAH 320 g/ha, three weeks after application
# Summary of the method: as §4
# [18] = system: green foxtail; test: Test Example 5: herbicidal effect by foliage application, plastic box (Table 20, symbol G); assay type: in vivo, green foxtail (Setaria viridis); conditions: foliage application, AAH 320 g/ha, three weeks after application
# Summary of the method: as §4
# [19] = system: blackgrass; test: Test Example 5: herbicidal effect by foliage application, plastic box (Table 20, symbol J); assay type: in vivo, blackgrass (Alopecurus myosuroides); conditions: foliage application, AAH 320 g/ha, three weeks after application
# Summary of the method: as §4
# [20] = system: Chinese sprangletop; test: Test Example 3: herbicidal effect by foliage application, Wagner pot (Table 18, symbol D); assay type: in vivo, chinese sprangletop (Leptochloa chinensis); conditions: 320 g/ha
# Summary of the method: as §3
# [21] = system: velvetleaf; test: Test Example 5: herbicidal effect by foliage application, plastic box (Table 20, symbol M); assay type: in vivo, velvetleaf (Abutilon theophrasti); conditions: foliage application, AAH 320 g/ha, three weeks after application
# Summary of the method: as §4
# [22] = system: southern crabgrass; test: Test Example 4: herbicidal effect by soil treatment (Table 19, symbol F); assay type: in vivo, southern crabgrass (Digitaria ciliaris); conditions: AAH 320 g/ha
# Summary of the method: as §2
# [23] = system: chickweed; test: Test Example 5: herbicidal effect by foliage application, plastic box (Table 20, symbol P); assay type: in vivo, common chickweed (Stellaria media); conditions: foliage application, AAH 320 g/ha, three weeks after application
# Summary of the method: as §4
# [24] = system: wild oat; test: Test Example 5: herbicidal effect by foliage application, plastic box (Table 20, symbol I); assay type: in vivo, wild oat (Avena fatua); conditions: foliage application, AAH 320 g/ha, three weeks after application
# Summary of the method: as §4
# [25] = system: Italian ryegrass; test: Test Example 4: herbicidal effect by soil treatment (Table 19, symbol K); assay type: in vivo, Italian ryegrass (Lolium multiflorum); conditions: AAH 320 g/ha
# Summary of the method: as §2
# [26] = system: lambsquarters; test: Test Example 5: herbicidal effect by foliage application, plastic box (Table 20, symbol O); assay type: in vivo, lambsquarters (Chenopodium album); conditions: foliage application, AAH 320 g/ha, three weeks after application
# Summary of the method: as §4
# [27] = system: redroot pigweed; test: Test Example 4: herbicidal effect by soil treatment (Table 19, symbol N); assay type: in vivo, redroot pigweed (Amaranthus retroflexus); conditions: AAH 320 g/ha
# Summary of the method: as §2
# [28] = system: green foxtail; test: Test Example 4: herbicidal effect by soil treatment (Table 19, symbol G); assay type: in vivo, green foxtail (Setaria viridis); conditions: AAH 320 g/ha
# Summary of the method: as §2
# [29] = system: barnyard grass; test: Test Example 4: herbicidal effect by soil treatment (Table 19, symbol H); assay type: in vivo, barnyard grass (Echinochloa crus-galli); conditions: AAH 320 g/ha
# Summary of the method: as §2
smiles,measurement,setting,value
CC(=O)COc1ccc(-c2sc3ccccc3c2-c2c(O)c(C)nn(C)c2=O)cc1 [1-143],Herbicidal effect on C: oval-leafed pondweed (grade 0-5),[1],0 (Herbicidal rate of 5% or less (almost no effect))
same,"R: persian speedwell, herbicidal effect rating",[2],3 (Herbicidal rate of 40% or more and less than 70%)
same,Herbicidal effect on A: late watergrass (grade 0-5),[3],3 (Herbicidal rate of 40% or more and less than 70%)
same,Herbicidal effect on B: Japanese bulrush (grade 0-5),[4],0 (Herbicidal rate of 5% or less (almost no effect))
same,"herbicidal effect on H (barnyard grass), rating 0-5",[5],5 (Herbicidal rate of 90% or more (almost completely withered))
same,"N: redroot pigweed, herbicidal effect",[6],4 (Herbicidal rate of 70% or more and less than 90%)
same,"P: chickweed, herbicidal effect rating",[7],0 (Herbicidal rate of 5% or less (almost no effect))
same,"I: wild oat, herbicidal effect rating",[8],0 (Herbicidal rate of 5% or less (almost no effect))
same,"O: lambsquarters, herbicidal effect rating",[9],5 (Herbicidal rate of 90% or more (almost completely withered))
same,"H: barnyard grass, herbicidal effect",[10],4 (Herbicidal rate of 70% or more and less than 90%)
same,"J: blackgrass, herbicidal effect rating",[11],0 (Herbicidal rate of 5% or less (almost no effect))
same,"K: Italian ryegrass, herbicidal effect",[12],4 (Herbicidal rate of 70% or more and less than 90%)
same,"L: windgrass, herbicidal effect",[13],4 (Herbicidal rate of 70% or more and less than 90%)
same,"M: velvetleaf, herbicidal effect rating",[14],4 (Herbicidal rate of 70% or more and less than 90%)
same,"F: southern crabgrass, herbicidal effect",[15],3 (Herbicidal rate of 40% or more and less than 70%)
same,"L: windgrass, herbicidal effect rating",[16],0 (Herbicidal rate of 5% or less (almost no effect))
same,"R: persian speedwell, herbicidal effect",[17],5 (Herbicidal rate of 90% or more (almost completely withered))
same,"G: green foxtail, herbicidal effect",[18],5 (Herbicidal rate of 90% or more (almost completely withered))
same,"J: blackgrass, herbicidal effect",[19],0 (Herbicidal rate of 5% or less (almost no effect))
same,"herbicidal effect on D (Chinese sprangletop), rating 0-5",[20],0 (Herbicidal rate of 5% or less (almost no effect))
same,"M: velvetleaf, herbicidal effect",[21],5 (Herbicidal rate of 90% or more (almost completely withered))
same,"F: southern crabgrass, herbicidal effect rating",[22],3 (Herbicidal rate of 40% or more and less than 70%)
same,"P: chickweed, herbicidal effect",[23],5 (Herbicidal rate of 90% or more (almost completely withered))
same,"I: wild oat, herbicidal effect",[24],0 (Herbicidal rate of 5% or less (almost no effect))
same,"K: Italian ryegrass, herbicidal effect rating",[25],0 (Herbicidal rate of 5% or less (almost no effect))
same,"O: lambsquarters, herbicidal effect",[26],4 (Herbicidal rate of 70% or more and less than 90%)
same,"N: redroot pigweed, herbicidal effect rating",[27],4 (Herbicidal rate of 70% or more and less than 90%)
same,"G: green foxtail, herbicidal effect rating",[28],4 (Herbicidal rate of 70% or more and less than 90%)
same,"H: barnyard grass, herbicidal effect rating",[29],4 (Herbicidal rate of 70% or more and less than 90%)
